Several values for one entry are separate records, joined by “and”; a condition that tells them apart may be missing. Equal values may be shown once.
Assays:
brlR transcription = test: qRT-PCR of brlR transcript; format: cell-based, P. aeruginosa PAO1
Experimental: PAO1 WT strains were grown under different conditions. For c-di-GMP effects, overexpression of PA4843 in PAO1 (PAO1/pHERD20T-PA4843) relative to WT cells (PAO1/ pHERD20T) was determined. When P. aeruginosa strains entered mid-log phase, arabinose was added to induce gene expression. To test pyocyanin’s effect, a P. aeruginosa PAO1 WT strain cells with high pyocyanin production was determined relative to a ΔphzA1-G1/phzA2-G2 strain not producing phenazine and a ΔphzMSH strain not producing pyocyanin.
Total RNA was extracted using a MiniBEST Universal RNA Extraction Kit (TaKaRa) and cDNA synthesis was performed using a PrimeScript RT reagent Kit (TaKaRa). Primers for RT-PCR listed in Supplementary Table 1 were designed using the program PrimerExpress (Applied Biosystems). The RT-PCR reactions were performed on a CFX96 Real-Time PCR Detection System (Bio-Rad) using SYBR Premix Ex Taq™ (TaKaRa). Expression of the target genes was normalized to the expression of 16 S RNA. The relative transcript abundance was calculated according to the 2^−ΔΔCt method. Five biological replicates were performed per sample. The data were analyzed with a one-tailed t-test (***P ≤ 0.001).

brlR [1] = test system: brlR; parameters: method as in PMID 16879411; conditions: addition of pyocyanin to P. aeruginosa PA14 strain; cited from earlier work
[2] = target: Per-Arnt-Sim (PAS) domain of PA14_07500 (RmcA); parameters: method as in earlier work; conditions: intrinsic fluorescence quenching method; ref 4 (Okegbe et al., 2017) of response letter; cited from earlier work
BrlR Y249A DNA binding = target: T1, BrlR Y249A DNA binding (Pseudomonas aeruginosa, UniProt Q9HUT5, Y249A); test: EMSA, BrlR Y249A with PbrlR; format: biochemical
T1 construct: His6-SUMO (N, cleaved yes); made in house; host or cells: E. coli BL21 DE3
Experimental: (§1) It is unlikely that the larger drug molecules located in the canonical binding pocket can slide into the pyocyanin binding site and promote BrlR-DNA binding, as reflected by the EMSA results for tobramycin (Fig. 6a). To further verify the amino acid residues contributing to pyocyanin binding, many BrlR mutants were constructed. Whereas mutant E247A was insoluble, mutant F253R was not expressed, and mutant C173W was unstable. The binding affinity of Y183A and Y249A for pyocyanin were evaluated by using EMSA with a 36-bp PbrlR.
(§2) A 6-carboxy-fluorescein (FAM)-labeled 36-bp brlR promoter DNA (PbrlR) or 80-bp mexA/mexE promoter DNA (PmexA/PmexE) probes (~0.375 pmol), BrlR protein and varying amounts of inducers were incubated in binding buffer (10 mM Tris HCl [pH 7.4], 50 mM KCl, 1 mM DTT, […] and 5 ng/mL poly [dI-dC]) for 60 min at 25 °C. Finally, glycerol was added to a concentration of 6.5%. The samples were subjected to a 5% polyacrylamide gel electrophoresis and run in 0.5 × Tris-borate-EDTA buffer at 80 V for 1 h at room temperature. Imaging and data analyses were performed using a Typhoon Scanner (GE Healthcare) and Imagequant software. The probes used are listed in Supplementary Table 1.

BrlR-DNA binding (PbrlR) = target: T2, BrlR-DNA binding (PbrlR) (Pseudomonas aeruginosa, UniProt Q9HUT5); test: EMSA, wild-type BrlR with PbrlR DNA; format: biochemical
T2 construct: His6-SUMO (N, cleaved yes); made in house; host or cells: E. coli BL21 DE3
Experimental: as §2

ΔbrlR cells = test: Planktonic antibiotic susceptibility testing, ΔbrlR; format: cell-based, Pseudomonas aeruginosa; conditions: 50 μg/ml tobramycin 1 h, 0.2 mM pyocyanin
Experimental: To determine the role of pyocyanin in antimicrobial susceptibility, P. aeruginosa strains (Supplementary Table 2) were grown at 37 °C in 20-fold diluted LB medium supplemented with or without 0.2 mM pyocyanin, which was purified from stationary phase cultures of PAO1. Tobramycin was added to the mid-log phase (OD600 = 0.8) cells suspension to a final concentration of 50 μg/ml; after 1 h, the broth was serially diluted and spread-printed onto LB agar (medium containing 300 μg/ml carbenicillin was used for the cells harboring plasmid) to determine the cell viability via CFU counts. The cell suspensions without tobramycin were set as controls. Susceptibility is expressed as a logarithmic reduction in CFU amount. The data were analyzed with a one-tailed t-test (***P ≤ 0.001).

[3] = target: T3, BrlR binding to PmexA and PmexE (Pseudomonas aeruginosa, UniProt Q9HUT5); test: EMSA, BrlR with PmexA and PmexE; format: biochemical; conditions: increasing concentrations of pyocyanin
T3 construct: His6-SUMO (N, cleaved yes); made in house; host or cells: E. coli BL21 DE3
Experimental: as §2

BrlR Y183A DNA binding = target: T4, BrlR Y183A DNA binding (Pseudomonas aeruginosa, UniProt Q9HUT5, Y183A); test: EMSA, BrlR Y183A with PbrlR; format: biochemical
T4 construct: His6-SUMO (N, cleaved yes); made in house; host or cells: E. coli BL21 DE3
Experimental: as §1, §2

BrlR [4] = target: T5, BrlR (Pseudomonas aeruginosa, UniProt Q9HUT5); test: Surface plasmon resonance (SPR) analysis; format: binding
T5 construct: His6-SUMO (N, cleaved yes); made in house; host or cells: E. coli BL21 DE3
Experimental: The binding affinity of diverse toxic compounds for BrlR were investigated by SPR using a BIAcore-T200 apparatus (GE Healthcare). The ligand, BrlR (20 μM in 10 mM sodium acetate, pH 4.5), was immobilized on an activated CM5 sensor chip by amine coupling (BIAcore) with 4400 response units (RU), and the unreacted sites were blocked with 1.0 M ethanolamine–HCl (pH 8.5). Steady-state binding analysis was performed with injections of different molecules at different concentrations over the immobilized BrlR surface at a flow rate of 20 μL min^−1 at 25 °C. Association was measured for 180 s, followed by 120 s of dissociation in running buffer (20 mM Hepes pH 7.5, 150 mM NaCl). The sensorgrams for specific interactions were obtained by subtracting the reference unimmobilized flow cell response from that of the sample. Since BrlR only has one binding site for pyocyanin or other toxic compounds (Fig. 5a–f), the kinetic analysis of the sensorgrams from analyte interaction with the immobilized BrlR was performed by fitting the binding curves to a 1:1 binding model. To determine the steady state KD values, equilibrium responses were plotted against analyte concentrations, and the resulting curves were fitted to the steady state model in the BIAevaluation software package, version 3.0 (GE Healthcare).

T5 sequence (Q9HUT5 whole entry): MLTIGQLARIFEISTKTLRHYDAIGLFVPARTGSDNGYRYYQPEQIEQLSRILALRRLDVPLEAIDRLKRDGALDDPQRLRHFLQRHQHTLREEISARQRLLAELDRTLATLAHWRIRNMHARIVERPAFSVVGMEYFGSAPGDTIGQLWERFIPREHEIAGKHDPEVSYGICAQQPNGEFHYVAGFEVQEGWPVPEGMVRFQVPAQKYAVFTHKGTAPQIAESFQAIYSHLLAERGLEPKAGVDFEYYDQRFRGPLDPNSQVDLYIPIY
T2 sequence (Q9HUT5 whole entry): as above
T1 sequence (Q9HUT5 whole entry Y249A): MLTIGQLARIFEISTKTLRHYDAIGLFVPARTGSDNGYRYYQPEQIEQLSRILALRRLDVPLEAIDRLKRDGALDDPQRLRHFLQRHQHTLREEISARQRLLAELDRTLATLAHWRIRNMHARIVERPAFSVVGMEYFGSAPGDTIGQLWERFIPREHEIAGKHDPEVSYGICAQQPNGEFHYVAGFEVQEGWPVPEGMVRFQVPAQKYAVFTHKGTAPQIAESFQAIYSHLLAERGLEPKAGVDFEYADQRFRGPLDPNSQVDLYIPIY
T4 sequence (Q9HUT5 whole entry Y183A): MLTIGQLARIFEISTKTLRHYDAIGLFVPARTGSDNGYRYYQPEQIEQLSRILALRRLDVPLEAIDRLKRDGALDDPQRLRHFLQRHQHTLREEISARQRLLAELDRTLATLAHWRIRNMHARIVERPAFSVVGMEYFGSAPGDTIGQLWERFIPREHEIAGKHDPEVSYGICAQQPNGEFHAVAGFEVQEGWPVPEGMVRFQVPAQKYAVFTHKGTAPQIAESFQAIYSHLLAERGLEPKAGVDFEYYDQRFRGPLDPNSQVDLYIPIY
T3 sequence (Q9HUT5 whole entry): as the sequence (Q9HUT5 whole entry) above

## Cn1c2cccc(=O)c-2nc2ccccc21 [pyocyanin, 5-N-methyl-1-hydroxyphenazine]
brlR transcription; PAO1 at high pyocyanin production vs strain not producing phenazine
  brlR expression level, PAO1 vs ΔphzA1-G1/phzA2-G2 strain: ~ 4.0 fold
brlR transcription; PAO1 at high pyocyanin production vs strain with no pyocyanin production
  brlR expression level, PAO1 vs ΔphzMSH strain: ~ 5.3 fold
brlR [1]
  up-regulation of brlR: 2.3 fold
[2]
  Kd: 3 µM
BrlR Y249A DNA binding
  DNA bound in the presence vs absence of pyocyanin: 4.15 fold
BrlR-DNA binding (PbrlR); PbrlR, c-di-GMP, pyocyanin, and both
  effect of c-di-GMP and pyocyanin together on BrlR-DNA binding: cooperatively enhance
BrlR-DNA binding (PbrlR); wild-type BrlR, PbrlR
  DNA bound in the presence vs absence of pyocyanin: 5.47 fold
BrlR-DNA binding (PbrlR); wild-type BrlR, increasing concentrations of compound
  effect on BrlR-PbrlR DNA binding (in words): significant increase
ΔbrlR cells
  viability of tobramycin-treated cells with vs without pyocyanin: no significant difference
[3]
  effect on BrlR binding to PmexA and PmexE: enhanced
BrlR Y183A DNA binding
  DNA bound in the presence vs absence of pyocyanin: 3.23 fold
BrlR [4]; SPR KD 4.5 μM vs 0.64 mM
  binding affinity relative to tobramycin: ~ 140 fold
BrlR [4]; SPR, immobilized BrlR, steady state, 25 °C
  Kd: 4.52 µM and 4.5 µM

Source: PMC6028453, “BrlR from Pseudomonas aeruginosa is a receptor for both cyclic di-GMP and pyocyanin” (Nature Communications, 2018)
